Source: patent US12595255B2, “Heteroaryl-substituted imidazole derivatives” (Hoffmann-La Roche Inc., priority 2021, dated 2026)
Read-outs that look alike come from different tables or passages of the source.

Tested on: Acinetobacter baumannii ATCC17961
Experiment: Antimicrobial susceptibility testing: 90% growth inhibitory concentration (IC90) determination
Assay type: cell-based
Procedure: Assay Procedures Antimicrobial Susceptibility Testing: 90% Growth Inhibitory Concentration (IC90) Determination
The in vitro antimicrobial activity of the compounds was determined according to the following procedure:
The assay used a 10-points Iso-Sensitest broth medium to measure quantitatively the in vitro activity of the compounds against Acinetobacter baumannii ATCC17961.
Stock compounds in DMSO were serially twofold diluted (e.g. range from 50 to 0.097 μM final concentration) in 384 wells microtiter plates and inoculated with 49 μl the bacterial suspension in Iso-Sensitest medium to have a final cell concentration of ˜5×10^5 CFU/ml in a final volume/well of 50 μl/well. Microtiter plates were incubated at 35±2° C.
Bacterial cell growth was determined with the measurement of optical density at λ=600 nm each 20 minutes over a time course of 16 h. Growth inhibition was calculated during the logarithmic growth of the bacterial cells with determination of the concentration inhibiting 50% (IC50) and 90% (IC90) of the growth.
Table 1 provides the 90% growth inhibitory concentrations (IC90) in micromoles per liter of the compounds of present invention obtained against the strain Acinetobacter baumannii ATCC17961.

[1] = ATCC17961, 90% growth inhibitory concentration, Iso-Sensitest broth, OD 600 nm over 16 h, 35±2° C., read-out: ATCC 17961 IC90

| IC90 [1] | SMILES | IC90 (ATCC17961, 16 h, read-out: ATCC 17961 IC90 [μM]) |
| --- | --- | --- |
| 0.64 µM | CN(C)c1nc(F)c(-c2cnc(C(=O)Nc3ccc(C(=O)N4CCC(C(=O)NC5CCNC5)CC4)c(Cl)c3)n2C)cc1F (centres unmarked) [Example F10, 1-[2-chloro-4-[[5-[6-(dimethylamino)-2,5-difluoro-3-pyridyl]-1-methyl-imidazole-2-carbonyl]amino]benzoyl]-N-pyrrolidin-3-yl-piperidine-4-carboxamide] | – |
| 0.27 µM | CN(C)c1nc(F)c(-c2cnc(C(=O)Nc3ccc(C(=O)N4CCN(C(=O)C5(O)CCNCC5)CC4)c(Cl)c3)n2C)cc1F [Example F1, N-[3-chloro-4-[4-(4-hydroxypiperidine-4-carbonyl)piperazine-1-carbonyl]phenyl]-5-[6-(dimethylamino)-2,5-difluoro-3-pyridyl]-1-methyl-imidazole-2-carboxamide] | – |
| 0.74 µM | CN(C)c1nc(F)c(-c2cnc(C(=O)Nc3ccc(C(=O)N4CCN(C(=O)C5CCNC5)CC4)c(Cl)c3)n2C)cc1F (centres unmarked) [Example F4, N-[3-chloro-4-[4-(pyrrolidine-3-carbonyl)piperazine-1-carbonyl]phenyl]-5-[6-(dimethylamino)-2,5-difluoro-3-pyridyl]-1-methyl-imidazole-2-carboxamide] | – |
| 0.47 µM | CN(C)c1ccc(-c2cnc(C(=O)Nc3ccc(C(=O)N4CCN(C(=O)C5CCNCC5)CC4)c(Cl)c3)n2C)c(F)n1 [Example E3, N-[3-chloro-4-[4-(piperidine-4-carbonyl)piperazine-1-carbonyl]phenyl]-5-[6-(dimethylamino)-2-fluoro-3-pyridyl]-1-methyl-imidazole-2-carboxamide] | – |
| 0.43 µM | CN(C)c1nc(F)c(-c2cnc(C(=O)Nc3ccc(C(=O)N4CCN(C(=O)CC5(O)CCNCC5)CC4)c(Cl)c3)n2C)cc1F [Example F3, N-[3-chloro-4-[4-[2-(4-hydroxy-4-piperidyl)acetyl]piperazine-1-carbonyl]phenyl]-5-[6-(dimethylamino)-2,5-difluoro-3-pyridyl]-1-methyl-imidazole-2-carboxamide] | – |
| 0.66 µM | CN(C)c1nc(F)c(-c2cnc(C(=O)Nc3ccc(C(=O)N4CCN(C(=O)CC5CCNCC5)CC4)c(Cl)c3)n2C)cc1F [Example F6, N-[3-chloro-4-[4-[2-(4-piperidyl)acetyl]piperazine-1-carbonyl]phenyl]-5-[6-(dimethylamino)-2,5-difluoro-3-pyridyl]-1-methyl-imidazole-2-carboxamide] | – |
| 1.4 µM | Cc1nc(N(C)C)ccc1-c1cnc(C(=O)Nc2ccc(C(=O)N3CCN(C(=O)C4CCNCC4)CC3)c(Cl)c2)n1C [Example E4, N-[3-chloro-4-[4-(piperidine-4-carbonyl)piperazine-1-carbonyl]phenyl]-5-[6-(dimethylamino)-2-methyl-3-pyridyl]-1-methyl-imidazole-2-carboxamide] | – |

Further lines, the compound ahead of its results:

| SMILES | IC90 [1] | IC90 (ATCC17961, 16 h, read-out: ATCC 17961 IC90 [μM]) |
| --- | --- | --- |
| Cn1c(-c2cccc3[nH]ccc23)cnc1C(=O)Nc1ccc(C(=O)N2CCN(C(=O)C3CCNCC3)CC2)c(Cl)c1 [Example A12, N-[3-chloro-4-[4-(piperidine-4-carbonyl)piperazine-1-carbonyl]phenyl]-5-(1H-indol-4-yl)-1-methyl-imidazole-2-carboxamide] | 0.49 µM | – |
| Cn1c(-c2ccc3[nH]nc(C(F)(F)F)c3c2)cnc1C(=O)Nc1ccc(C(=O)N2CCN(C(=O)C[C@@H]3CCNC3)CC2)c(Cl)c1 [Example A3, N-[3-chloro-4-[4-[2-[(3S)-pyrrolidin-3-yl]acetyl]piperazine-1-carbonyl]phenyl]-1-methyl-5-[3-(trifluoromethyl)-1H-indazol-5-yl]imidazole-2-carboxamide] | 0.23 µM | – |
| COc1ccc(-c2cnc(C(=O)Nc3ccc(C(=O)N4CCN(C(=O)C[C@@H]5CCNC5)CC4)c(Cl)c3)n2C)c(C(F)(F)F)n1 [Example A14, N-[3-chloro-4-[4-[2-[(3S)-pyrrolidin-3-yl]acetyl]piperazine-1-carbonyl]phenyl]-5-[6-methoxy-2-(trifluoromethyl)-3-pyridyl]-1-methyl-imidazole-2-carboxamide] | 0.23 µM | – |
| Cc1n[nH]c2cc(F)c(-c3cnc(C(=O)Nc4ccc(C(=O)N5CCN(C(=O)C[C@@H]6CCNC6)CC5)c(Cl)c4)n3C)cc12 [Example A2, N-[3-chloro-4-[4-[2-[(3S)-pyrrolidin-3-yl]acetyl]piperazine-1-carbonyl]phenyl]-5-(6-fluoro-3-methyl-1H-indazol-5-yl)-1-methyl-imidazole-2-carboxamide] | 0.46 µM | – |
| CN(C)c1nc(F)c(-c2cnc(C(=O)Nc3ccc(C(=O)NC4CCN(C(=O)[C@@H]5C[C@@H](O)C[N+]5(C)C)CC4)c(Cl)c3)n2C)cc1F [Example D12, N-[3-chloro-4-[[1-[(2S,4R)-4-hydroxy-1,1-dimethyl-pyrrolidin-1-ium-2-carbonyl]-4-piperidyl]carbamoyl]phenyl]-5-[6-(dimethylamino)-2,5-difluoro-3-pyridyl]-1-methyl-imidazole-2-carboxamide] | 2.8 µM | – |
| COc1ccc(-c2cnc(C(=O)Nc3ccc(C(=O)N4CCN(C(=O)C5CCNCC5)CC4)c(Cl)c3)n2C)c(OC)n1 [Example A7, N-[3-chloro-4-[4-(piperidine-4-carbonyl)piperazine-1-carbonyl]phenyl]-5-(2,6-dimethoxy-3-pyridyl)-1-methyl-imidazole-2-carboxamide] | 0.46 µM | – |
| CN(C)c1nc(F)c(-c2cnc(C(=O)Nc3ccc(C(=O)N4CCC(NC(=O)C[N+](C)(C)C)CC4)c(Cl)c3)n2C)cc1F [Example D9, [2-[[1-[2-chloro-4-[[5-[6-(dimethylamino)-2,5-difluoro-3-pyridyl]-1-methyl-imidazole-2-carbonyl]amino]benzoyl]-4-piperidyl]amino]-2-oxo-ethyl]-trimethyl-ammonium] | – | 1.6 µM |
| Cn1c(-c2ccc(Cl)nc2Cl)cnc1C(=O)Nc1ccc(C(=O)N2CCN(C(=O)C3CCNCC3)CC2)c(Cl)c1 [Example A5, N-[3-chloro-4-[4-(piperidine-4-carbonyl)piperazine-1-carbonyl]phenyl]-5-(2,6-dichloro-3-pyridyl)-1-methyl-imidazole-2-carboxamide] | 0.72 µM | – |
| CN(C)c1ccc(-c2cnc(C(=O)Nc3ccc(C(=O)N4CCN(C(=O)C5CCNCC5)CC4)c(Cl)c3)n2C)c(C(F)(F)F)n1 [Example A6, N-[3-chloro-4-[4-(piperidine-4-carbonyl)piperazine-1-carbonyl]phenyl]-5-[6-(dimethylamino)-2-(trifluoromethyl)-3-pyridyl]-1-methyl-imidazole-2-carboxamide] | 0.31 µM | – |
| CN(C)CC(=O)N1CCN(C(=O)c2ccc(NC(=O)c3ncc(-c4cc(F)c(N(C)C)nc4F)n3C)cc2Cl)CC1 [Example C1, N-[3-chloro-4-[4-[2-(dimethylamino)acetyl]piperazine-1-carbonyl]phenyl]-5-[6-(dimethylamino)-2,5-difluoro-3-pyridyl]-1-methyl-imidazole-2-carboxamide] | 0.53 µM | – |
| COc1ccc(-c2cnc(C(=O)Nc3ccc(C(=O)N4CCN(C(=O)[C@@H]5[C@@H]6CNC[C@@H]65)CC4)c(Cl)c3)n2C)c(C(F)(F)F)n1 [Example A18, N-[4-[4-[(1R,5S)-3-azabicyclo[3.1.0]hexane-6-carbonyl]piperazine-1-carbonyl]-3-chloro-phenyl]-5-[6-methoxy-2-(trifluoromethyl)-3-pyridyl]-1-methyl-imidazole-2-carboxamide] | 0.26 µM | – |
| CN(C)c1nc(F)c(-c2cnc(C(=O)Nc3ccc(C(=O)N4CCN(C(=O)C5CC(C[N+](C)(C)C)C5)CC4)c(Cl)c3)n2C)cc1F (centres unmarked) [Example D11, [3-[4-[2-chloro-4-[[5-[6-(dimethylamino)-2,5-difluoro-3-pyridyl]-1-methyl-imidazole-2-carbonyl]amino]benzoyl]piperazine-1-carbonyl]cyclobutyl]methyl-trimethyl-ammonium] | 1.5 µM | – |
| Cn1c(-c2cccc3c2ccn3C)cnc1C(=O)Nc1ccc(C(=O)N2CCN(C(=O)C3CCNCC3)CC2)c(Cl)c1 [Example A13, N-[3-chloro-4-[4-(piperidine-4-carbonyl)piperazine-1-carbonyl]phenyl]-1-methyl-5-(1-methylindol-4-yl)imidazole-2-carboxamide] | 1.1 µM | – |
| CN(C)c1ncc(-c2cnc(C(=O)Nc3ccc(C(=O)N4CCN(C(=O)C[C@@H]5CCNC5)CC4)c(Cl)c3)n2C)c(C(F)(F)F)n1 [Example A9, N-[3-chloro-4-[4-[2-[(3S)-pyrrolidin-3-yl]acetyl]piperazine-1-carbonyl]phenyl]-5-[2-(dimethylamino)-4-(trifluoromethyl)pyrimidin-5-yl]-1-methyl-imidazole-2-carboxamide] | 0.58 µM | – |
| COc1cc(Cl)c(-c2cnc(C(=O)Nc3ccc(C(=O)N4CCN(C(=O)C5CCNCC5)CC4)c(Cl)c3)n2C)cn1 [Example A15, 5-(4-chloro-6-methoxy-3-pyridyl)-N-[3-chloro-4-[4-(piperidine-4-carbonyl)piperazine-1-carbonyl]phenyl]-1-methyl-imidazole-2-carboxamide] | 0.66 µM | – |
| CN(C)c1nc(F)c(-c2cnc(C(=O)Nc3ccc(C(=O)N4CCC(C(=O)NC5CC[N+](C)(C)C5)CC4)c(Cl)c3)n2C)cc1F (centres unmarked) [Example D13, 1-[2-chloro-4-[[5-[6-(dimethylamino)-2,5-difluoro-3-pyridyl]-1-methyl-imidazole-2-carbonyl]amino]benzoyl]-N-(1,1-dimethylpyrrolidin-1-ium-3-yl)piperidine-4-carboxamide] | 0.73 µM | – |
